Tests used:
[1] = tested on: prostate carcinoma (PC-3) cells; test: SRB cytotoxicity assay, PC-3; type: cell-based, human; settings: for IC50: Homo sapiens, PC-3, SRB assay, 72 h, mean ± SD of three experiments; for Selectivity Index PC-3: SI = IC50 on WI-38/IC50 on PC-3
Description: In the present work, sulforhodamine B (SRB) colorimetric assay was done to evaluate the cytotoxic activity of the synthesized 3-cyano pyridines 4a–4e, 5a–5e, and 6a–6e on three human cancer cell lines: prostate carcinoma (PC-3), breast cancer (MDA-MB-231) and hepatocellular carcinoma (HepG2) cell lines. 5-FU was used as a standard drug for comparison.
Human cancer cells were obtained from Nawah Scientific Inc. (Mokatam, Cairo, Egypt). Cells were maintained in DMEM media containing […] streptomycin, 100 units/mL penicillin, and 10% heat-inactivated fetal bovine serum in humified, 5% (v/v) CO2 atmosphere at 37 °C.
Cell viability was estimated using the SRB assay. Aliquots of 100 µL cell suspension (5 × 10^3 cells) in 96-well plates were incubated in complete media for 24 h. Cells were treated with a second aliquot of 100 µL media containing various concentrations of the tested compounds (0.01, 0.1, 1, 10, and 100 μM). After 72 h, cells were fixed by replacing media with 15 µL of 10% TCA and then incubated at 4 °C for 1 h. After that, TCA solution was removed, and the cells were washed 5 times with distilled water. Aliquots of 70 µL SRB solution (0.4% w/v) were added and incubated in a dark place at room temperature for 10 min. Plates were washed 3 times with 1% acetic acid and allowed to air dry overnight. Then, 150 µL of TRIS (10 mM) was added to dissolve protein-bound SRB stain. The absorbance was measured at 540 nm using BMG LABTECH®-FLUO star Omega microplate reader (Ortenberg, Germany).

[2] = tested on: MDA-MB-231 cells; test: Annexin V-FITC/PI apoptosis assay; type: cell-based, human; settings: for total increase in apoptotic and necrotic cells compared to control: MDA-MB-231, Annexin V-FITC; for Percent of cell death: Apoptosis Late / Percent of cell death: Necrosis / Percent of cell death: Apoptosis Early / Percent of cell death: Total: MDA-MB-231, IC50 concentration, 48 h; for Percent of cell death: Apoptosis Late: control 0.31; for Percent of cell death: Necrosis: control 0.47; for Percent of cell death: Apoptosis Early: control 1.09; for Percent of cell death: Total: control 1.87
Description: So, inhibiting survivin should result in increased spontaneous apoptosis in tumor cells. In this study, the apoptotic potential of 5c and 5e was further assessed using Annexin V-FITC assay.
MDA-MB-231 cells were plated in 24-well tissue culture plates. […] After 48 h, cells that floated were collected from the medium. The adherent cells were separated using 0.05% trypsin. After that, a 10% FBS medium was added for inactivating trypsin. Following slow pipetting, the centrifugation of cells was done for 5 min at 1500× g. Then, the supernatant was discarded, and cells were then stained with double annexin V-fluorescein isothiocyanate in addition to propidium iodide (PI) staining following the manufacturer’s directions. Analysis of the cells was investigated using a FACScan flow cytometer.

[3] = tested on: C-IAP1; test: Western blotting of C-IAP1 in MDA-MB-231 cells; type: cell-based, human; settings: for C-IAP1 protein level (Western blot, in words): MDA-MB-231, 1, 5 and 10 µM
Description: The ability of the 2-oxo-3-cyano pyridines 5c and 5e to cause an inhibition of survivin was evaluated by the use of Western blotting analysis in MDA-MB-231cells treated with different concentrations of both compounds (1, 5, and 10 µM). […] Furthermore, to test the effect of these compounds on some other IAP family proteins, the Western plot of Livin, XIAP, and C-IAP1 proteins was performed (Figure 6). […] The Supplementary Material Figures S40 and S41 contain western blotting analysis for 5c and 5e.
MDA-MB-231 cancer cells were incubated with 5c and 5e at different concentrations (1, 5, and 10 µM) for 48 h. Afterwards, the medium was detached, and the cells were washed using PBS (10 mmol/L, pH 7.4). Then, the cells were incubated on cold lysis buffer (50 mmol/L Tris–HCl, 150 mmol/L NaCl, 1 mmol/L EGTA, 1 mmol/L EDTA, 20 mmol/L NaF, […], 0.5% NP40, 1% Triton X-100, 1 mmol/L PMSF (pH 7.4)) and a freshly added cocktail inhibitor (Inhibitor Cocktail Set III, Calbiochem, La Jolla, CA) above ice for 30 min. Then, MDA-MB-231 cells were collected and centrifuged at 12,000× g for 15 min.
XIAp, Survivin, Livin, and cIAP1anti-mouse, anti-rabbit secondary antibodies, and GAPDH were purchased from Sigma-Aldrich, whereas the gel was obtained from BioRad. Polyacrylamide gels were moved to a nitrocellulose membrane in order to block in buffer (7% nonfat dry milk/1% Tween 20; in 20 mmol/L TBS (pH 7.6)) for 1 h and incubated for 2 h at room temperature with the suitable primary antibody in blocking buffer or overnight at 4 °C; then, they were incubated with secondary antibody HRP conjugate. Finally, the blots analysis was done using the imaging system.

[4] = biological target: T1, survivin (Homo sapiens, UniProt O15392); test: Rescue experiment with proteasome inhibitor MG132 (Western blot of survivin); type: cell-based; settings: MDA-MB cells pre-treated with proteasome inhibitor MG132
T1 construct: Western blotting analysis in MDA-MB-231cells treated with different concentrations of both compounds; endogenous in cells; host or cells: MDA-MB-231
T1 sequence (O15392 whole entry): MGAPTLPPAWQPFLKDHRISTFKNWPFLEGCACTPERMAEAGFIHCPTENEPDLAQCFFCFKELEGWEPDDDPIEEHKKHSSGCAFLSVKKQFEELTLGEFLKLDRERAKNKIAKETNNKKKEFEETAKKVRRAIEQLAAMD
Description: Degradation of the dimeric proteins can result from the interaction with the hydrophobic dimerization interface, which leads to conformational changes. This degradation can be mediated by the proteasome enzyme. Since 5c and 5e were expected to inhibit survivin dimerization as shown in the docking study, we assumed that they may induce the degradation of survivin via the proteasome. Thus, a rescue experiment was performed by pre-treating MDA-MB-cells with the proteasome inhibitor MG132 prior to 5c/5e treatment. […] Thus, 5c and 5e likely promote survivin degradation through the proteasome.

| Structure (SMILES) | IC50 [1] [µM] | Selectivity Index PC-3 [1] | total increase in apoptotic and necrotic cells compared to control [2] [fold] | Percent of cell death: Apoptosis Late [2] [%] | Percent of cell death: Necrosis [2] [%] | Percent of cell death: Apoptosis Early [2] [%] | Percent of cell death: Total [2] [%] | CIAP1 band % ([3]; MDA-MB-231, 1µM) [%] | CIAP1 band Area ([3]; MDA-MB-231, 1µM) | CIAP1 band Height ([3]; MDA-MB-231, 1µM) | CIAP1 band Width ([3]; MDA-MB-231, 1µM) | CIAP1 band % ([3]; MDA-MB-231, 5µM) [%] | CIAP1 band Area ([3]; MDA-MB-231, 5µM) | CIAP1 band Height ([3]; MDA-MB-231, 5µM) | CIAP1 band Width ([3]; MDA-MB-231, 5µM) | CIAP1 band % ([3]; MDA-MB-231, 10µM) [%] | CIAP1 band Area ([3]; MDA-MB-231, 10µM) | CIAP1 band Height ([3]; MDA-MB-231, 10µM) | CIAP1 band Width ([3]; MDA-MB-231, 10µM) | C-IAP1 protein level (Western blot, in words) [3] | also measured |
| --- | --- | --- | --- | --- | --- | --- | --- | --- | --- | --- | --- | --- | --- | --- | --- | --- | --- | --- | --- | --- | --- |
| N#Cc1c(-c2ccc(Cl)cc2)cc(-c2ccc(OCc3ccc(F)cc3)cc2)[nH]c1=O [Compound 5c, 4-(4-Chlorophenyl)-6-(4-((4-fluorobenzyl)oxy)phenyl)-2-oxo-1,2-dihydropyridine-3-carbonitrile] | 14.4 ± 0.38 | 6.33 | 8.72 | 8.67 | 2.58 | 5.07 | 16.32 | 39.7 | 2565 | 192 | 24 | 34.1 | 1941 | 187 | 22 | 31.9 | 1884 | 186 | 18 | decreased the levels of these proteins | cytotoxicity relative to 5-FU ([1]; cell line not specified (PC-3, MDA-MB-231, HepG2 tested)): nearly half that of 5-FU; effect of MG132 pre-treatment on compound-induced survivin loss [4]: MG132 reversed 5c/5e-induced survivin loss |
| COc1ccc(-c2cc(-c3ccc(OCc4ccc(F)cc4)cc3)[nH]c(=O)c2C#N)cc1 [Compound 5e, 6-(4-((4-Fluorobenzyl)oxy)phenyl)-4-(4-methoxyphenyl)-2-oxo-1,2-dihydropyridine-3-carbonitrile] | 4.46 ± 0.51 | 22.99 | 10.41 | 10.91 | 2.38 | 6.18 | 19.47 | 18.2 | 987 | 98 | 24 | 12.6 | 766 | 86 | 23 | 10.2 | 570 | 79 | 22 | decreased the levels of these proteins | activity relative to 5-FU, PC-3 ([1]; cytotoxicity compared with 5-FU): twice the activity of 5-FU; effect of MG132 pre-treatment on compound-induced survivin loss [4]: MG132 reversed 5c/5e-induced survivin loss |

From publication PMC7660103, “Discovery of Novel 3-Cyanopyridines as Survivin Modulators and Apoptosis Inducers” (Molecules, 2020)
